Measured values as given in the NIST ThermoML archive (doi:10.1016/j.fluid.2006.10.023).
Where “and” joins values, the source holds several entries; their conditions need not be identical. Identical values can stand only once. Numbers after ± are expanded uncertainties.

Conditions: Liquid, Closed cell (Static) method

SMILES | vapor or sublimation pressure (253.15 K) | vapor or sublimation pressure (273.15 K) | vapor or sublimation pressure (293.15 K)
FCC(F)(F)F [1,1,1,2-tetrafluoroethane] | 133.5 ± 2.1 kPa | 291.8 ± 2.2 kPa | 572.1 ± 2.6 kPa
C1CC1 [cyclopropane] | 171.3 ± 2.1 kPa and 171.2 ± 2.1 kPa | 344.1 ± 2.3 kPa and 344.7 ± 2.3 kPa | 631.7 ± 2.8 kPa and 632.2 ± 2.8 kPa
FC(F)C(F)(F)F [pentafluoroethane] | 337.3 ± 2.3 kPa | 672.1 ± 2.9 kPa | 1204.7 ± 4.1 kPa
